The IC50 is the concentration needed to halve the response being measured.

Several values for one entry are separate records, joined by “and”; a condition that tells them apart may be missing. Identical values can stand only once. Like-named read-outs stand apart in the source and are kept apart here.

We go through three compounds from patent US9636418B2 (priority 2013, dated 2017).

What all share (assay): cell-based
Test [1] deals with T1, hNav1.5 (Homo sapiens, UniProt Q14524). The conditions noted are these: IonWorks Quattro; read-out: IC50 Nav1.5. (In general: In patch-clamp work, channel activity is measured electrically.)
The target of test [2] is hNav1.3 (Homo sapiens, UniProt Q9NY46). The conditions noted are these: IonWorks Quattro; read-out: IC50 Nav1.3.
The target of test [3] is T2, hNav1.4 (Homo sapiens, UniProt P35499). The conditions noted are these: for IC50: PatchXpress, * = at high concentrations compound would wash off slowly or not at all, read-out: PX hNav1.4 Tonic IC50.
For test [4], the target named is T3, hNav1.7 (Homo sapiens, UniProt Q15858). The class given is cell-based. The conditions noted are these: PatchXpress; * = at high concentrations compound would wash off slowly or not at all; read-out: PX hNav1.7 Tonic IC50.
Test [5] deals with T1, hNav1.5. The conditions noted are these: PatchXpress; * = at high concentrations compound would wash off slowly or not at all; read-out: PX hNav1.5 Tonic IC50.
The target of test [6] is T3, hNav1.7. The conditions noted are these: IonWorks Quattro; read-out: IC50 Nav1.7.
Test [7] addresses T2, hNav1.4. The conditions noted are these: for IC50: IonWorks Quattro, read-out: IC50 Nav1.4; for Nav1.4/Nav1.7: ratio of IonWorks Quattro IC50 values.

T2 sequence (P35499 whole entry): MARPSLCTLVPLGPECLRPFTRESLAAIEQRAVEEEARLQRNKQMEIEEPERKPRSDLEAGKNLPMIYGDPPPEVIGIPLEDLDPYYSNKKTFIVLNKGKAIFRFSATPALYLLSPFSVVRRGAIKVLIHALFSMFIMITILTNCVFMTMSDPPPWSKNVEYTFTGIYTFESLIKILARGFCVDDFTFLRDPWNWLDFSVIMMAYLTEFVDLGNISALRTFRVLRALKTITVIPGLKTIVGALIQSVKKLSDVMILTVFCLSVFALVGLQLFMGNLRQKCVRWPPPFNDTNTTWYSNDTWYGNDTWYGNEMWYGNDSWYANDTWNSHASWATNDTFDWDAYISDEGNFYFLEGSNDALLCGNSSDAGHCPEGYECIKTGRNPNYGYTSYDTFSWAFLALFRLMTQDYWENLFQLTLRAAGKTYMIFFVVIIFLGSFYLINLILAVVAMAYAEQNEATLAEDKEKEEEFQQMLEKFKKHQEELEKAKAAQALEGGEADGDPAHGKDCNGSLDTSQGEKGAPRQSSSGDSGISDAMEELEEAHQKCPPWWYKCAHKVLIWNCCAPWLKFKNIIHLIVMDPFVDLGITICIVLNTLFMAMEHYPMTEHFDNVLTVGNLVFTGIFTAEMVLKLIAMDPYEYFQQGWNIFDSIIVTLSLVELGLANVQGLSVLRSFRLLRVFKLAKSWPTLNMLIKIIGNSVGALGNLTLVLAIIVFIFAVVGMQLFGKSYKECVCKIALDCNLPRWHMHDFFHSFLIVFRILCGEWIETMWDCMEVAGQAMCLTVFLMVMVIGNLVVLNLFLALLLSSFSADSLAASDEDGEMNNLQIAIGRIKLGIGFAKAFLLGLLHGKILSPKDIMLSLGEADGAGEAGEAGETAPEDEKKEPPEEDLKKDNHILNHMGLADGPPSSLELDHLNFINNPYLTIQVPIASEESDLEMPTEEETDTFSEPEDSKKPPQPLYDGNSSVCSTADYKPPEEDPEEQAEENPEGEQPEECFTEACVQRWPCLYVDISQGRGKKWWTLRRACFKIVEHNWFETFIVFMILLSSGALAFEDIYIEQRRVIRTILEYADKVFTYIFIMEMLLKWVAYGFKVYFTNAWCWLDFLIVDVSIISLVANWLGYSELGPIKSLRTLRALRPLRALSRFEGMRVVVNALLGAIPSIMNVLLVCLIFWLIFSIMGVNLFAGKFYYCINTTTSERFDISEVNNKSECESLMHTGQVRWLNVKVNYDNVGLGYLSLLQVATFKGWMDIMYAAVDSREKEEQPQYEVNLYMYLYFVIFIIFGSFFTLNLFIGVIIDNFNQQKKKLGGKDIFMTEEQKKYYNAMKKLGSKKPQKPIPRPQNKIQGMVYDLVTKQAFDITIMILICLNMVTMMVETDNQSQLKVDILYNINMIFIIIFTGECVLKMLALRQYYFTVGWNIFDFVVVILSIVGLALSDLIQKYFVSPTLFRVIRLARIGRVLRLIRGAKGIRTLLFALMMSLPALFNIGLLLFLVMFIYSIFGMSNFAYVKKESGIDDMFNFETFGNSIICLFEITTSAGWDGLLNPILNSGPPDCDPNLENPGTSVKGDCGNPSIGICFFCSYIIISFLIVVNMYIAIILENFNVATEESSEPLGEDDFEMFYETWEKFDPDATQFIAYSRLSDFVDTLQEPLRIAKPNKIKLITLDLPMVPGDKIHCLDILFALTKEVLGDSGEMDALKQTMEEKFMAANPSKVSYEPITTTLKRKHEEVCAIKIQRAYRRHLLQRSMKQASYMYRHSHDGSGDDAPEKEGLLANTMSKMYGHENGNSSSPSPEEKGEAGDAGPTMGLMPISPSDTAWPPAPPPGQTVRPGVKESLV
T1 sequence (Q14524 whole entry): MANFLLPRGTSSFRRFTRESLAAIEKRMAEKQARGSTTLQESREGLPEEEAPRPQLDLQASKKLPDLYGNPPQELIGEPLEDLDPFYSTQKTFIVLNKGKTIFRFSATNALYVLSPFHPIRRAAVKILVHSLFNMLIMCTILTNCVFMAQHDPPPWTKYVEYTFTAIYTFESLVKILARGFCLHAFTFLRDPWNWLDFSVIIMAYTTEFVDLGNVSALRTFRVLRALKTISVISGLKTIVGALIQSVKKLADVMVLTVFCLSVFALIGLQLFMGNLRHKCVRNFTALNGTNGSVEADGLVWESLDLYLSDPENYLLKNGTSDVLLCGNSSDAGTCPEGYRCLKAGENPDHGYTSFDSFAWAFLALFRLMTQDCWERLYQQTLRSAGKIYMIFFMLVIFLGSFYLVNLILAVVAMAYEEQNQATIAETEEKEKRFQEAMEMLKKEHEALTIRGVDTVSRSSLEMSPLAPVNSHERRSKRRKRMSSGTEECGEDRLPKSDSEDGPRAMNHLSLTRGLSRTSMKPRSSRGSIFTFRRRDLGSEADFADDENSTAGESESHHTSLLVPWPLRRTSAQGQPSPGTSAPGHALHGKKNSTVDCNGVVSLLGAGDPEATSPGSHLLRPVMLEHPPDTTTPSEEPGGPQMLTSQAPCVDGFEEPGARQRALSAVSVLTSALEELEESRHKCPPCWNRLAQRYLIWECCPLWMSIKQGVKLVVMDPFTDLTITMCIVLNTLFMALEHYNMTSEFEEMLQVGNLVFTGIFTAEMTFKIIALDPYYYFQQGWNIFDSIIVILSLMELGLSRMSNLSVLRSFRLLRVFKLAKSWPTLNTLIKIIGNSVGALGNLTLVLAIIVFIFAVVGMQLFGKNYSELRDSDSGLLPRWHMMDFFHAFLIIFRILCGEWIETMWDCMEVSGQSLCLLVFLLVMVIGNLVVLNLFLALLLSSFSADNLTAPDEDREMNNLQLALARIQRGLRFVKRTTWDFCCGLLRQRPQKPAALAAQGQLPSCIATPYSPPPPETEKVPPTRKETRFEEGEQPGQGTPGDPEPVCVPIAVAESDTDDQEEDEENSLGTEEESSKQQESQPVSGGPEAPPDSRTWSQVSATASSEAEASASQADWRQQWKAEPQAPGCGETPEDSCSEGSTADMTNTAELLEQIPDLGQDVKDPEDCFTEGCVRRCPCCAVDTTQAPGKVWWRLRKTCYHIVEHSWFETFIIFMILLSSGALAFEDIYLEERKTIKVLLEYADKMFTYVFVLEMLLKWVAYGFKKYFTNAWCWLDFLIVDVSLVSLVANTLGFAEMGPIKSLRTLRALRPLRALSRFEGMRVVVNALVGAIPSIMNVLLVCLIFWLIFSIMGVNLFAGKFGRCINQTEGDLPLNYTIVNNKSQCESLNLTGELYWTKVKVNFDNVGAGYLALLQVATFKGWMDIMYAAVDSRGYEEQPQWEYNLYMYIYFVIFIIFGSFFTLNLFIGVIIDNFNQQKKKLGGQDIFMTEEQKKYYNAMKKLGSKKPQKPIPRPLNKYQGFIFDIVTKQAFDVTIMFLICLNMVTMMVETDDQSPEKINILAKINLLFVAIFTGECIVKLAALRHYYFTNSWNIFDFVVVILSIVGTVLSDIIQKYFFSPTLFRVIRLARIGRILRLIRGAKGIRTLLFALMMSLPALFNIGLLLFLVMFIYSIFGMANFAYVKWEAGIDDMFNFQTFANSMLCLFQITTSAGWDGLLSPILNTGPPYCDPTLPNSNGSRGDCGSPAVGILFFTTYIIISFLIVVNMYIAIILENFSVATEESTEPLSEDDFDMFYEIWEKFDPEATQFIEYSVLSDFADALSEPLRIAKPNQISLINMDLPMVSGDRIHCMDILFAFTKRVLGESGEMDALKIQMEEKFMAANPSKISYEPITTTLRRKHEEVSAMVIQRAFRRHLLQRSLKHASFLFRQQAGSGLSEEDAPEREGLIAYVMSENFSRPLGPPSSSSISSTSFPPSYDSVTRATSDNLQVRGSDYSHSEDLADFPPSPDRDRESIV

Take `CC[C@H](C)[C@H](NC(=O)[C@@H](NC(=O)[C@H](CCCCN)NC(=O)[C@H](CCCNC(=N)N)NC(=O)[C@@H]1CSSC[C@@H]2NC(=O)[C@H](C)NC(=O)[C@H](CCCNC(=N)N)NC(=O)[C@H](CCCCN)NC(=O)[C@H](CO)NC(=O)[C@H](CC(=O)O)NC(=O)[C@@H]3CSSC[C@H](NC(=O)[C@H](CCC(=O)O)NC(=O)[C@H](CC(C)C)NC(=O)CNC(=O)[C@H](CCC(=O)O)NC(=O)[C@H](CSSC[C@H](NC(=O)[C@@H](N)Cc4ccc(O)cc4)C(=O)N[C@@H](CCC(N)=O)C(=O)N[C@@H](CCCCN)C(=O)N[C@@H](Cc4c[nH]c5ccccc45)C(=O)N[C@@H](CCSC)C(=O)N[C@@H](Cc4c[nH]c5ccccc45)C(=O)N[C@@H]([C@@H](C)O)C(=O)N3)NC2=O)C(=O)N[C@@H](CCCCN)C(=O)N[C@@H](CC(C)C)C(=O)N[C@@H](Cc2c[nH]c3ccccc23)C(=O)N1)C(C)C)C(N)=O` [compound 133]: the IC50 is 12 µM in test [1]; 4.85 µM in test [2]; 1.31 µM in test [3]; 0.0041 µM in test [4]; 5.5 µM in test [5]; 0.08 µM in test [6]. Moreover, in test [7], the half-inhibitory concentration (IC50) came out at 4 µM. Moreover, the Nav1.4/Nav1.7 in test [3] (ratio of PX IC50 values) is reported as 320; in test [7] it was 51.

For `CC[C@H](C)[C@H](NC(=O)[C@H](CCCNC(N)=O)NC(=O)[C@H](CCCCN)NC(=O)[C@H](CCCNC(=N)N)NC(=O)[C@@H]1CSSC[C@@H]2NC(=O)[C@H](C)NC(=O)[C@H](CCCNC(=N)N)NC(=O)[C@H](CCCCN)NC(=O)[C@H](CO)NC(=O)[C@H](CC(=O)O)NC(=O)[C@@H]3CSSC[C@H](NC(=O)[C@H](CCC(=O)O)NC(=O)[C@H](CC(C)C)NC(=O)CNC(=O)[C@H](CCC(=O)O)NC(=O)[C@H](CSSC[C@H](NC(=O)[C@@H](N)Cc4ccc(O)cc4)C(=O)N[C@@H](CCC(N)=O)C(=O)N[C@@H](CCCCN)C(=O)N[C@@H](Cc4c[nH]c5ccccc45)C(=O)N[C@@H](CCSC)C(=O)N[C@@H](Cc4c[nH]c5ccccc45)C(=O)N[C@@H]([C@@H](C)O)C(=O)N3)NC2=O)C(=O)N[C@@H](CCCCN)C(=O)N[C@@H](CC(C)C)C(=O)N[C@@H](Cc2c[nH]c3ccccc23)C(=O)N1)C(N)=O` [compound 135], the IC50 in test [1] was 12 µM; in test [2] it was more than 5 µM; in test [3], 6.02 µM; in test [4] it was 0.0056 µM; in test [5], more than 10 µM; in test [6], 0.11 µM. Also, the IC50 in test [7] was more than 5 µM. Further, in test [7], the Nav1.4/Nav1.7 is recorded as 46.

With `CCC[C@H](NC(=O)[C@H](CCCCN)NC(=O)[C@H](CCCNC(=N)N)NC(=O)[C@@H]1CSSC[C@@H]2NC(=O)[C@H](C)NC(=O)[C@H](CCCNC(=N)N)NC(=O)[C@H](CCCCN)NC(=O)[C@H](CO)NC(=O)[C@H](CC(=O)O)NC(=O)[C@@H]3CSSC[C@H](NC(=O)[C@H](CCC(=O)O)NC(=O)[C@H](CC(C)C)NC(=O)CNC(=O)[C@H](CCC(=O)O)NC(=O)[C@H](CSSC[C@H](NC(=O)[C@@H](N)Cc4ccc(O)cc4)C(=O)N[C@@H](CCC(N)=O)C(=O)N[C@@H](CCCCN)C(=O)N[C@@H](Cc4c[nH]c5ccccc45)C(=O)N[C@@H](CCSC)C(=O)N[C@@H](Cc4c[nH]c5ccccc45)C(=O)N[C@@H]([C@@H](C)O)C(=O)N3)NC2=O)C(=O)N[C@@H](CCCCN)C(=O)N[C@@H](CC(C)C)C(=O)N[C@@H](Cc2c[nH]c3ccccc23)C(=O)N1)C(=O)N[C@H](C(N)=O)[C@@H](C)CC` [compound 136], the 50% inhibitory concentration (IC50) was 8.9 µM and 15.8 µM in test [1]; more than 5 µM in test [2]; 5.19 µM in test [3]; 0.0128 µM in test [4]; 7.82 µM in test [5]; 0.08 µM and 0.15 µM in test [6]. Moreover, the 50% inhibitory concentration (IC50) in test [7] is more than 5 µM. The Nav1.4/Nav1.7 in test [7] is 66 and 34.
